According to the NIST ThermoML archive (doi:10.1021/je050514j):

Legend:
[1] = xn = mol fraction of the nth substance listed; details: 313.15 K, Fluid (supercritical or subcritical phases), x1 = 1
[2] = refractive index (Na D-line) (dimensionless); details: 298.15 K; 101.33 kPa; Liquid; Standard Abbe refractometry

O=C=O [carbon dioxide]
313.15 K, Fluid (supercritical or subcritical phases)
Details	mass density [kg/m3]
1000 kPa	17.8
2000 kPa	37.3
3000 kPa	58.6
4000 kPa	83.4
5000 kPa	112.5
6000 kPa	148.7
7000 kPa	197.5
8000 kPa	276.7
9000 kPa	482.6
10000 kPa	627.3

O=C=O [carbon dioxide] + CCOC(C)=O
[1]
Details	mass density [kg/m3]
1000 kPa	17.8
2000 kPa	37.3
3000 kPa	58.6
4000 kPa	83.4
5000 kPa	112.5
6000 kPa	148.7
7000 kPa	197.5
8000 kPa	276.7
9000 kPa	482.6
10000 kPa	627.3

CCOC(C)=O [ethyl acetate]
Details	mass density [kg/m3]
298.15 K, 101.33 kPa, Liquid	894.4
313.15 K, 1000 kPa, Fluid (supercritical or subcritical phases)	876.9
313.15 K, 2000 kPa, Fluid (supercritical or subcritical phases)	878
313.15 K, 3000 kPa, Fluid (supercritical or subcritical phases)	878.9
313.15 K, 4000 kPa, Fluid (supercritical or subcritical phases)	880
313.15 K, 5000 kPa, Fluid (supercritical or subcritical phases)	881
313.15 K, 6000 kPa, Fluid (supercritical or subcritical phases)	881.9
313.15 K, 7000 kPa, Fluid (supercritical or subcritical phases)	882.9
313.15 K, 8000 kPa, Fluid (supercritical or subcritical phases)	883.9
313.15 K, 9000 kPa, Fluid (supercritical or subcritical phases)	884.9
313.15 K, 10000 kPa, Fluid (supercritical or subcritical phases)	885.9

Details	Normal boiling temperature [°C]
Liquid, ebulliometry	77.06

Details	refractive index
[2]	1.3702
